The record followed here is patent US11279714B2, “Anti-infective compounds” (priority 2014, dated 2022).

Converted amounts (≈) assume the structure as drawn.

In data set [1] the test system is M. tuberculosis H37Rv expressing the green fluorescent protein (H37Rv-GFP). The data set can be described thus: microbe, parasite or virus in culture. The following applies: Mycobacterium tuberculosis, H37RV, 120 h; read-out: QUM (MIC50). Type of data set: cell-based.
The test system of data set [2] is Raw 264.7 cells infected with H37Rv-GFP. As to the kind of experiment: microbe, parasite or virus in culture. Type of data set: cell-based, M. tuberculosis. The note with it: Mycobacterium tuberculosis, H37RV, 120 h; read-out: QIM (MIC50).

On to `O=C(Nc1ccc(Oc2ccccc2)cc1)c1cc2sc(N3CCCCC3)nc2s1` [Compound 61], for which the melting point was 201 °C. Besides, the MIC50 in data set [1] is 1 to 20 µM (≈ 0.436 to 8.71 µg/mL). In addition, the MIC50 in data set [2] was below 1 µM.
The corresponding values for `O=C(Nc1ccc(CN2CCN(c3ccc(Cl)cc3)CC2)cc1)c1cc2sc(N3CCOCC3)nc2s1` [Compound 199] are 249.9 °C, 1 to 20 µM (≈ 0.554 to 11.1 µg/mL) and below 1 µM.
Taken in the same sequence, the figures for `CCN(CC)C(=O)c1cc2sc(N3CCCCC3)nc2s1` [Compound 57] were 84 °C, 1 to 20 µM (≈ 0.323 to 6.47 µg/mL) and 1 to 20 µM (≈ 0.323 to 6.47 µg/mL).
Taken in the same sequence, the figures for `COc1ccc(NC(=O)c2cc3sc(C(C)C)nc3s2)cc1` [Compound 115] were 149 °C, 1 to 20 µM (≈ 0.332 to 6.65 µg/mL) and below 1 µM.
On to `Cc1nc2cc(NC(=O)N3CCc4sc(N5CCOCC5)cc4C3)ccc2o1` [Compound 191], for which the melting point amounted to 171.7 °C. For the same compound, the MIC50 in data set [1] was above 20 µM. Also, in data set [2], the MIC50 was above 20 µM.
`COc1ccc(NC(=O)c2cc3sc(N4CCC(C(=O)N(C)C)CC4)nc3s2)cc1` [Compound 127]: the melting point turned out to be 273.4 °C. Besides, the MIC50 in data set [1] is below 1 µM. For the same compound, the MIC50 in data set [2] is below 1 µM.
On to `CCOC(=O)c1ccc(NC(=O)c2cc3sc(N4CCOCC4)nc3s2)cc1` [Compound 108], for which the melting point stood at 274 °C. Besides, the MIC50 in data set [1] is 1 to 20 µM (≈ 0.418 to 8.35 µg/mL). Moreover, in data set [2], the MIC50 was below 1 µM.
Taken in the same sequence, the figures for `O=C(Nc1ccc(F)cc1)c1cc2sc(N3CCC(CO)CC3)nc2s1` [Compound 142] were 246.3 °C, below 1 µM and below 1 µM.
The corresponding values for `O=C(Nc1ccc(Cl)cc1)c1cc2nc(N3CCCCC3)sc2s1` [Compound 29] are 230 °C, 1 to 20 µM (≈ 0.378 to 7.56 µg/mL) and 1 to 20 µM (≈ 0.378 to 7.56 µg/mL).
Taken in the same sequence, the figures for `Cc1nc2cc(NC(=O)C3CCc4nc(N5CCOCC5)sc4C3)ccc2o1` (stereo not drawn) [Compound 170] were 239 °C, above 20 µM and above 20 µM.
The compound `O=C(Nc1cccc(Br)c1)c1cc2sc(N3CCOCC3)nc2s1` [Compound 118] showed a melting point of 199 °C. Also, the MIC50 in data set [1] was above 20 µM. For the same compound, the MIC50 in data set [2] is below 1 µM.
Taken in the same sequence, the figures for `Cn1ncc2ccc(NC(=O)c3cc4sc(N5CCOCC5)nc4s3)cc21` [Compound 131] were 288 °C, above 20 µM and above 20 µM.
The compound `O=C(Nc1ccc(C(F)(F)F)cc1)c1cc2sc(N3CCOCC3)nc2s1` [Compound 107] came in with a melting point of 259.3 °C. Further, the MIC50 in data set [1] was above 20 µM. The MIC50 in data set [2] was below 1 µM.
Taken in the same sequence, the figures for `COc1ccc(NC(=O)c2cc3sc(N4CCC4)nc3s2)cc1` [Compound 80] were 256 °C, 1 to 20 µM (≈ 0.345 to 6.91 µg/mL) and below 1 µM.
The corresponding values for `Nc1ccc(OC(=O)c2cc3nc(N4CCCCC4)sc3s2)cc1` [Compound 9] are 153 °C, above 20 µM and above 20 µM.
The compound `COc1ncc(NC(=O)c2cc3nc(N4CCCCC4)sc3s2)cn1` [Compound 6] came in with a melting point of 274 °C. Also, in data set [1], the MIC50 fell in the range of 1 to 20 µM (≈ 0.375 to 7.51 µg/mL). Further, the MIC50 in data set [2] is 1 to 20 µM (≈ 0.375 to 7.51 µg/mL).
`O=C(Nc1ccc(Cl)cc1)c1cc2sc(N3CCCCC3)nc2s1` [Compound 45] registered a melting point of 275.2 °C. Further, the MIC50 in data set [1] was in the range of 1 to 20 µM (≈ 0.378 to 7.56 µg/mL). Besides, the MIC50 in data set [2] was below 1 µM.
The corresponding values for `COc1ccc(NC(=O)c2cc3scnc3s2)cc1` [Compound 75] are 212 °C, 1 to 20 µM (≈ 0.29 to 5.81 µg/mL) and above 20 µM.
Taken in the same sequence, the figures for `Cc1nc2cc(NC(=O)c3cc4sc(N5CCOCC5)nc4s3)c(Cl)cc2o1` [Compound 141] were 277 °C, above 20 µM and above 20 µM.
Taken in the same sequence, the figures for `COC1CCN(c2nc3sc(C(=O)Nc4ccc5oc(C)nc5c4)cc3s2)CC1` [Compound 124] were 237.9 °C, below 1 µM and below 1 µM.
The compound `Cc1nc2cc(NC(=O)c3cc4sc(N5CCC(COc6ccc(Cl)cc6)CC5)nc4s3)ccc2o1` [Compound 195] showed a melting point of 256 °C. In addition, the MIC50 in data set [1] was above 20 µM. Moreover, the MIC50 in data set [2] was below 1 µM.
The corresponding values for `CC1CCN(c2ccc(NC(=O)c3cc4sc(N5CCOCC5)nc4s3)cc2)CC1` [Compound 194] are 278 °C, 1 to 20 µM (≈ 0.443 to 8.85 µg/mL) and below 1 µM.
As for `O=C(Nc1ccc(O)cc1)c1cc2nc(N3CCCCC3)sc2s1` [Compound 18], the melting point amounted to 266 °C. Moreover, the MIC50 in data set [1] is 1 to 20 µM (≈ 0.359 to 7.19 µg/mL). Also, in data set [2], the MIC50 is above 20 µM.
Taken in the same sequence, the figures for `N#Cc1ccc(NC(=O)c2cc3sc(N4CCCCC4)nc3s2)cc1` [Compound 54] were 177 °C, below 1 µM and below 1 µM.
Taken in the same sequence, the figures for `Cc1nc2cc(NC(=O)c3sc4nc(N5CCOCC5)sc4c3C)ccc2o1` [Compound 163] were 226 °C, above 20 µM and above 20 µM.
Taken in the same sequence, the figures for `Cc1nc2cc(NC(=O)c3cc4sc(N5CC(C)OC(C)C5)nc4s3)ccc2o1` (stereo not drawn) [Compound 180] were 274 °C, 1 to 20 µM (≈ 0.429 to 8.57 µg/mL) and below 1 µM.
Regarding `O=C(Nc1ccc(F)cc1)c1cc2sc(N3CCCCC3)nc2s1` [Compound 53], the melting point was determined as 233 °C. Besides, the MIC50 in data set [1] is below 1 µM. Further, the MIC50 in data set [2] was below 1 µM.
In turn, `Cc1ccc(-c2ccc(NC(=O)c3cc4sc(N5CCOCC5)nc4s3)cc2)cn1` [Compound 161] returned a melting point of 292 °C. Moreover, in data set [1], the MIC50 is above 20 µM. The MIC50 in data set [2] is below 1 µM.
Regarding `CC(C)(C)OC(=O)Nc1cc2sc(N3CCCCC3)nc2s1` [Compound 81], the melting point was 157 °C. In addition, the MIC50 in data set [1] was above 20 µM. Also, in data set [2], the MIC50 was above 20 µM.
Compound `COc1c(C(=O)Nc2ccc3oc(C)nc3c2)sc2nc(N3CCOCC3)sc12` [Compound 172] displayed a melting point of 269 °C. Besides, the MIC50 in data set [1] was above 20 µM. For the same compound, the MIC50 in data set [2] is above 20 µM.
The compound `Cn1cc(F)c(-c2ccc(NC(=O)c3cc4sc(N5CCOCC5)nc4s3)cc2)n1` [Compound 162] gave a melting point of 280.5 °C. For the same compound, the MIC50 in data set [1] is 1 to 20 µM (≈ 0.444 to 8.87 µg/mL). Besides, the MIC50 in data set [2] is below 1 µM.
For the compound `COC(=O)C1CCN(C(=O)c2cc3sc(N4CCCCC4)nc3s2)CC1` [Compound 56], the melting point came to 136 °C. Besides, the MIC50 in data set [1] lay within 1 to 20 µM (≈ 0.394 to 7.87 µg/mL). Also, in data set [2], the MIC50 was 1 to 20 µM (≈ 0.394 to 7.87 µg/mL).
With `Cc1nc2cc(NC(=O)N3CCc4nc(N5CCOCC5)sc4C3)ccc2o1` [Compound 187], the melting point is 104 °C. Besides, the MIC50 in data set [1] was above 20 µM. In data set [2], the MIC50 is above 20 µM.
In the case of `CCC1CN(c2nc3sc(C(=O)Nc4ccc5oc(C)nc5c4)cc3s2)CCO1` (stereo not drawn) [Compound 153], the melting point is 214 °C. In data set [1], the MIC50 was below 1 µM. Further, in data set [2], the MIC50 is below 1 µM.
With `COc1ccc(NC(=O)c2cc3sc(N4CCC(Oc5ccccc5)CC4)nc3s2)cc1` [Compound 106], the melting point was 225 °C. In data set [1], the MIC50 is above 20 µM. The MIC50 in data set [2] is below 1 µM.
Taken in the same sequence, the figures for `O=C(Nc1ccc(-c2n[nH]cc2F)cc1)c1cc2sc(N3CCOCC3)nc2s1.O=C(O)C(F)(F)F` [Compound 159] were 287.2 °C, 1 to 20 µM and below 1 µM.
The corresponding values for `COc1ccc(NC(=O)c2ccc3sc(N4CCCCC4)nc3c2)cc1` [Compound 70] are 222 °C, above 20 µM and above 20 µM.
Taken in the same sequence, the figures for `Cc1nc2cc(NC(=O)c3cc4sc(N5CCOC(c6ccccc6)C5)nc4s3)ccc2o1` (stereo not drawn) [Compound 174] were 223.5 °C, 1 to 20 µM (≈ 0.477 to 9.53 µg/mL) and below 1 µM.
In the case of `O=C(Nc1ccc(F)c(F)c1)c1cc2nc(N3CCCCC3)sc2s1` [Compound 3], the melting point is 246.3 °C. In addition, the MIC50 in data set [1] lay within 1 to 20 µM (≈ 0.379 to 7.59 µg/mL). Moreover, in data set [2], the MIC50 was below 1 µM.
Taken in the same sequence, the figures for `Cc1cc2cc(NC(=O)c3cc4sc(N5CCOCC5)nc4s3)ccc2o1` [Compound 135] were 231.3 °C, 1 to 20 µM (≈ 0.399 to 7.99 µg/mL) and below 1 µM.
As to `COc1ccc(NC(=O)c2cc3sc(N4CCOCC4)nc3s2)cc1` [Compound 66], the melting point was 248.8 °C. In addition, the MIC50 in data set [1] lay within 1 to 20 µM (≈ 0.375 to 7.51 µg/mL). In data set [2], the MIC50 is below 1 µM.
Take `COc1ccc(OC(=O)c2ccc(NC(=O)c3cc4sc(N5CCOCC5)nc4s3)cc2)cc1` [Compound 111]: the melting point was 302.6 °C. Further, in data set [1], the MIC50 lay within 1 to 20 µM (≈ 0.496 to 9.91 µg/mL). The MIC50 in data set [2] was below 1 µM.
`Cc1nc2cc(NC(=O)c3cc4sc(N(C)CCO)nc4s3)ccc2o1` [Compound 201] registered a melting point of 226.3 °C. Further, in data set [1], the MIC50 was below 1 µM. In data set [2], the MIC50 lay within 1 to 20 µM (≈ 0.388 to 7.77 µg/mL).
Taken in the same sequence, the figures for `COc1ccc(NC(=O)c2csc3nc(N4CCCCC4)sc23)cc1` [Compound 73] were 209.8 °C, above 20 µM and above 20 µM.
Taken in the same sequence, the figures for `Cc1nc2cc(NC(=O)c3cc4sc(N5CCOCC5)nc4s3)ccc2o1` [Compound 83] were 268.3 °C, below 1 µM and below 1 µM.
Taken in the same sequence, the figures for `O=C(Nc1ccc(CN2CCC(c3ccc(Cl)cc3)CC2)cc1)c1cc2sc(N3CCOCC3)nc2s1` [Compound 200] were 254.6 °C, above 20 µM and above 20 µM.
